Test results: patent US10858344B2, “Hydantoin containing deoxyuridine triphosphatase inhibitors” (CV6 Therapeutics (NI) Limited, priority 2016, dated 2020)

Target: recombinant human deoxyuridine nucleotidohydrolase (dUTPase) (Homo sapiens (Human), UniProt P33316)
Experiment: fluorescence-based dUTPase inhibition assay
Type: biochemical
Settings: for % relative inhibition vs. positive control: mean over three concentrations, typically 100, 50 and 25 μmol/L, compared to in-run positive control
Text: Recombinant human deoxyuridine nucleotidohydrolase (dUTPase) is expressed and purified as described in Ladner R D, Carr S A, Huddleston M J, McNulty D E, Caradonna S J. J Biol Chem. 1996 Mar. 29; 271(13):7752-7. All drugs stocks are aliquoted and diluted as appropriate prior to use. The oligonucelotide primer, templates and fluorophore- and quencher-labeled detection probes are synthesized by Integrated DNA Technologies (Coralville, Iowa), subjected to polyacrylamide gel electrophoresis purification and reconstituted in Omnipur sterile nuclease-free water (EMD Chemicals USA, Gibbstown N.J.) at a stock concentration of 100 μmol/L. The two non-emissive (dark) quenching molecules incorporated into the detection probes include the Iowa black fluorescein quencher (IBFQ; absorption max 531 nm) and ZEN (non-abbreviation; absorption max 532 nm). The fluorescent label utilized is 6-FAM (5′-carboxyfluorescein; excitation max.=494 nm, emission max.=520 nm). Probes are further diluted to a working stock of 10 μmol/L and aliquoted to avoid repeated freeze/thaw cycles. AmpliTaq Gold DNA Polymerase, GeneAmp 10×PCR Buffer 2, MgCl2 and MicroAmp Optical 96-well Reaction Plates are purchased from Applied Biosystems (Carlsbad, Calif.). dNTPs are purchased individually at stock concentrations of 100 mmol/L from New England Biolabs at HPLC-certified >99% purity (Ipswich, Mass.).
Reaction mixtures contained primer, probe and template at an equimolar final concentration of 0.4 μmol/L. Magnesium chloride (MgCl2) is included at a final concentration of 2 mmol/L. Non-limiting dNTPs are included in the reaction mix in excess at a final concentration of 100 μmol/L (dUTP/dTTP is excluded). AmpliTaq Gold DNA polymerase is added at 0.875 U/reaction, 2.5 μl of 10×PCR buffer 2 added and nuclease-free ddH2O added to a final reaction volume of 25 μl. For dUTP inhibition analysis, the volume of ddH2O is further modified to accommodate an additional 1 μl of dUTPase (10 ng/μl) and 1 μl of inhibitor or DMSO control. Thermal profiling and fluorescence detection is performed using a customized thermal program on board a Roche Lightcycler LC480 Instrument II. For analysis of dNTPs, the thermal profile consisted of an 8 min 37° C. step followed by a 10 min 95° C. step to ‘hot-start’ the Taq polymerase and a primer extension time of up to 30 min at 60° C. Raw fluorescence spectra for 6-FAM is measured at specified time intervals to follow assay progression on board a Roche LightCycler 480 Software Version 1.5 and exported and analyzed in Microsoft Excel (Microsoft, Redmond Wash.) and Prism (GraphPad Software, La Jolla Calif.). Fluorescence values for blank reactions (limiting dNTP omitted) are subtracted to give normalized fluorescence units (NFU) to account for background fluorescence.
Test compounds are screened in a fluorescence-based assay. The assay employs a DNA polymerase-based approach utilizing an oligonucleotide template with 3 distinct regions: a 3′ primer binding region, a mid-template dUTP/thymidine triphosphate (TTP) detection region and a 5′ 6-[…] (FAM)-labeled probe binding region that incorporates a black hole quenching moiety. During the reaction, the probe and primer hybridize to the oligonucleotide template to form the template:primer:probe complex. When Taq polymerase binds to the primer in the TPP complex and dUTP is present, successful extension of the nascent strand occurs and the inherent 5′ to 3′ exonuclease activity of Taq polymerase cleaves and displaces the 6-FAM-labeled probe in a 5′ to 3′ direction, releasing the 6-FAM fluorophore from its proximity to the three quenchers. This displacement effectively disrupts the Förster resonance energy transfer (FRET) and the resulting fluorescence detected upon excitation is directly proportional to the amount of the dUTP available in the assay for incorporation. […]

recombinant human deoxyuridine nucleotidohydrolase (dUTPase), sequence (P33316 other isoform, or with tags, fused parts or gaps): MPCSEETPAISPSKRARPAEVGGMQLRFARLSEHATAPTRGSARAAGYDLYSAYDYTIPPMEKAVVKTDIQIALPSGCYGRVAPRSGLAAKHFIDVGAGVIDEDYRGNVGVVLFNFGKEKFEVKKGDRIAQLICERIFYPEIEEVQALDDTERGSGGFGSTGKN

Row | IC50 [nM] | % relative inhibition vs. positive control [%] | Structure (SMILES)
1 |  | 37 | C[C@@H](NS(=O)(=O)C/C=C/CCC1(C)NC(=O)NC1=O)c1ccc(F)c(OCC2CC2)c1 (stereo partly drawn) [127a, (E)-N—((R)-1-(3-(cyclopropylmethoxy)-4-fluorophenyl)ethyl)-5-(4-methyl-2,5-dioxoimidazolidin-4-yl) pent-2-ene-1-sulfonamide]
2 |  | 187 | C[C@@H](NS(=O)(=O)CCCCCN1CC(=O)NC1=O)c1ccc(F)c(OC2CCCC2)c1 [Example 86, (R)—N-(1-(3-(cyclopentyloxy)-4-fluorophenyl)ethyl)-5-(2,4-dioxoimidazolidine-1-yl)pentane-1-sulfonamide]
3 |  | 153 | C[C@@H](NS(=O)(=O)CC/C=C/CN1C(=O)NC(=O)[C@@H]1C)c1ccc(F)c(OCC2CC2)c1 [Compound 107a, (E)-N—((R)-1-(3-(cyclopropylmethoxy)-4-fluorophenyl)ethyl)-5-((S)-5-methyl-2,4-dioxoimidazolidin-1-yl)pent-3-ene-1-sulfonamide]
4 | 1250 | 60 | C[C@@H](NS(=O)(=O)CCCCCN1CC(=O)NC1=O)c1ccc(F)c(Oc2ccccc2)c1 [Example 99, (R)-5-(2,4-dioxoimidazolidin-1-yl)-N-(1-(4-fluoro-3-phenoxyphenyl)ethyl)pentane-1-sulfonamide]
5 | 3000 | 25 | C[C@@H](NS(=O)(=O)CCCCCN1CC(=O)NC1=O)c1ccc(F)c(OC2CCOCC2)c1 [Example 98, (R)-5-(2,4-dioxoimidazolidin-1-yl)-N-(1-(4-fluoro-3-((tetrahydro-2H-pyran-4-yl)oxy)phenyl)ethyl)pentane-1-sulfonamide]
6 | 2000 | 37 | C[C@@H](NS(=O)(=O)CCCCCN1CC(=O)NC1=O)c1ccc(F)c(OCC2COC2)c1 [Example 87, (R)-5-(2,4-dioxoimidazolidin-1-yl)-N-(1-(4-fluoro-3-(oxetane-3-ylmethoxy)phenyl)ethyl)pentane-1-sulfonamide]
7 | 800 | 93 | C[C@@H](NS(=O)(=O)CCCCCN1CC(=O)NC1=O)c1cccc(OC2CCCC2)c1 [Example 89, (R)—N-(1-(3-(cyclopentyloxy)phenyl)ethyl)-5-(2,4-dioxoimidazolidin-1-yl)pentane-1-sulfonamide]
8 |  | 154 | C[C@@H](NS(=O)(=O)CCCCCN1C(=O)NC(=O)[C@@H]1C)c1ccc(F)c(OCC2CC2)c1 [Compound 107b, N—((R)-1-(3-(cyclopropylmethoxy)-4-fluorophenyl)ethyl)-5-((S)-5-methyl-2,4-dioxoimidazolidin-1-yl)pentane-1-sulfonamide]
9 |  | 27 | CC(C)C(NS(=O)(=O)CCCCCN1CC(=O)NC1=O)c1ccc(F)c(OCC2CC2)c1 (stereo not shown) [Example 103, N-(1-(3-(cyclopropylmethoxy)-4-fluorophenyl)-2-methylpropyl)-5-(2,4-dioxoimidazolidin-1-yl)pentane-1-sulfonamide]
10 | 150000 | 1 | C[C@@H](NS(=O)(=O)CCn1ccc(N2CC(=O)NC2=O)n1)c1ccc(F)c(OCC2CC2)c1 [Example 106, (R)—N-(1-(3-(cyclopropylmethoxy)-4-fluorophenyl)ethyl)-2-(3-(2,4-dioxoimidazolidin-1-yl)-1H-pyrazol-1-yl)ethane-1-sulfonamide]
11 |  | 182 | [2H]C([2H])(Oc1cc([C@@H](C)NS(=O)(=O)CCCCCN2CC(=O)NC2=O)ccc1F)C1CC1 [Example 97, (R)—N-(1-(3-(cyclopropylmethoxy-d2)-4-fluorophenyl)ethyl)-5-(2,4-dioxoimidazolidin-1-yl)pentane-1-sulfonamide]
12 |  | 187 | C[C@@H](NS(=O)(=O)CCCOCN1CC(=O)NC1=O)c1ccc(F)c(OC2CCCC2)c1 [Example 85, (R)—N-(1-(3-(cyclopentyloxy)-4-fluorophenyl)ethyl)-3-((2,4-dioxoimidazolidin-1-yl)methoxy)propane-1-sulfonamide]
13 |  | 124 | C[C@@H](NS(=O)(=O)CCOCCN1CC(=O)NC1=O)c1cccc(OCC2CC2)c1 [Example 114, (R)—N-(1-(3-(cyclopropylmethoxy)phenyl)ethyl)-2-(2-(2,4-dioxoimidazolidin-1-yl)ethoxy)ethane-1-sulfonamide]
14 |  | 102 | C[C@H]1C(=O)NC(=O)N1CCCCCS(=O)(=O)NC1(c2cccc(OCC3CC3)c2)CC1 [123b, (S)—N-(1-(3-(cyclopropylmethoxy)phenyl)cyclopropyl)-5-(5-methyl-2,4-dioxoimidazolidin-1-yl)pentane-1-sulfonamide]
15 | > 25000 | 0 | C[C@@H](NS(=O)(=O)CCCCCN1CC(=O)N(COCC[Si](C)(C)C)C1=O)c1ccc(F)c(OCC2CC2)c1 [Example 95, (R)—N-(1-(3-(cyclopropylmethoxy)-4-fluorophenyl)ethyl)-5-(2,4-dioxo-3-((2-(trimethylsilyl)ethoxy)methyl)-imidazolidin-1-yl)pentane-1-sulfonamide]
16 | 3000 | 25 | CCOc1cc([C@@H](C)NS(=O)(=O)CCCCCN2CC(=O)NC2=O)ccc1F [Example 82, (R)-5-(2,4-dioxoimidazolidin-1-yl)-N-(1-(3-ethoxy-4-fluorophenyl)ethyl)pentane-1-sulfonamide]

Row | Structure (SMILES) | IC50 [nM] | % relative inhibition vs. positive control [%]
17 | C[C@@H](NS(=O)(=O)CCCCCN1CC(=O)NC1=O)c1ccc(F)c(OC2CCC2)c1 [Example 83, (R)—N-(1-(3-cyclobutoxy-4-fluorophenyl)ethyl)-5-(2,4-dioxoimidazolidin-1-yl)pentane-1-sulfonamide] | 2000 | 37
18 | C[C@H]1C(=O)NC(=O)N1COCCCS(=O)(=O)NC1(c2ccc(F)c(OCC3CC3)c2)CC1 [compound 124, (S)—N-(1-(3-(cyclopropylmethoxy)-4-fluorophenyl)cyclopropyl)-3-((5-methyl-2,4-dioxoimidazolidin-1-yl)methoxy)propane-1-sulfonamide] |  | 153
19 | O=C1CN(CCCCCS(=O)(=O)NC2CCc3c2ccc(F)c3OCC2CC2)C(=O)N1 (stereo not shown) [Example 105, N-(4-(cyclopropylmethoxy)-5-fluoro-2,3-dihydro-1H-inden-1-yl)-5-(2,4-dioxoimidazolidin-1-yl) pentane-1-sulfonamide] |  | 36
20 | C[C@@H](NS(=O)(=O)CC/C=C/CC1CC(=O)NC1=O)c1ccc(F)c(OCC2CC2)c1 (stereo partly drawn) [compound 125, (E)-N—((R)-1-(3-(cyclopropylmethoxy)-4-fluorophenyl)ethyl)-5-(2,5-dioxopyrrolidin-3-yl)pent-3-ene-1-sulfonamide] |  | 71
21 | CC1(C)C(=O)NC(=O)N1C/C=C/CCS(=O)(=O)NC1(c2ccc(F)c(OCC(F)F)c2)CC1 [compound 121, (E)-N-(1-(3-(2,2-difluoroethoxy)-4-fluorophenyl)cyclopropyl)-5-(5,5-dimethyl-2,4-dioxoimidazolidin-1-yl)pent-3-ene-1-sulfonamide] |  | 21
22 | O=C1CN(CCCCCCNS(=O)(=O)c2cccc(OCC3CC3)c2)C(=O)N1 [Example 80, 3-(cyclopropylmethoxy)-N-(6-(2,4-dioxoimidazolidin-1-yl)hexyl)benzenesulfonamide] |  | 151
23 | C[C@@H](NS(=O)(=O)CCCCCC1(C)NC(=O)NC1=O)c1ccc(F)c(OCC2CC2)c1 (stereo partly drawn) [127b, N—((R)-1-(3-(cyclopropylmethoxy)-4-fluorophenyl)ethyl)-5-(4-methyl-2,5-dioxoimidazolidin-4-yl) pentane-1-sulfonamide] |  | 71
